Experimental data as given in publication PMC3835742, “Lack of Plasma Kallikrein-Kinin System Cascade in Teleosts” (PLoS ONE, 2013).
pEC50: −log10 of the molar value. Entries after “also recorded” stand apart in the source; their conditions may differ.

Experiments:
[1] = tested on: polyclonal antiserum for [Arg^0]-BK; assay: Radioimmunoassay (RIA) for [Arg^0, Trp^5, Leu^8]-bradykinin; format: binding, rabbit; conditions: for crossreactivity in the RIA: relative to [Arg^0]-BK standard, peptides serially diluted in RIA buffer, antiserum 1:10,000, 4 °C, 24 h
Description: [Arg^0, Trp^5, Leu^8]-bradykinin ([Arg^0]-BK: RRPPGWSPLR) was synthesized by Phoenix Pharmaceuticals Inc. (Burlingame, CA, USA). [Arg^0]-BK was N-terminally conjugated to thyroglobulin by the glutaraldehyde method. Briefly, 5 mg thyroglobulin was mixed with 1 mg [Arg^0]-BK in 4 mL PBS (pH 7.0) and glutaraldehyde was added to a final concentration of 0.05 %. The mixture was incubated at 25 °C for 1 h with gentle agitation and reaction was stopped by addition of 0.1 mL ethanolamine. The mixture was dialyzed against 1 L PBS overnight at 4 °C and protein concentration was determined. For each injection, 0.2 mg conjugated protein was used and three rabbits were first immunized with the conjugated protein in Freund’s complete adjuvant followed by two booster immunogen injections in Freund’s incomplete adjuvant. The interval between injections was 4 weeks and the rabbits were sacrificed for final bleeds 3 weeks after the third immunization.
Synthetic [Tyr^-1, Arg^0, Trp^5, Leu^8]-bradykinin (YRRPPGWSPLR) was radiolabeled by ^125I using the lactoperoxidase method and the iodinated peptide was purified by an HPLC system. The ^125I-BK was diluted in RIA buffer containing 0.1% RIA-grade bovine serum albumin to produce ~10,000 cpm per assay tube. The titers of the antiserum were determined by serial dilution and maximum binding was adjusted at 20 % of the total binding. […] Unbound fractions were removed by aspiration and specific binding in the pellet was measured using a gamma counter (Perkin Elmer, MA, USA). […]
(§1) To test the degradation rate of [Arg^0]-BK in plasma in vitro, 3 blood samples with inhibitor cocktail were prepared. […] The immunoreactive (ir)-[Arg^0]-BK was measured using the newly established RIA. […] The concentration of [Arg^0]-BK in the HPLC fractions were measured to determine the percentage recovery. Synthetic [Trp^5, Leu^8]-BK (BK) and [Arg^0, Trp^5, des-Leu^8, des-Arg^9]-bradykinin were serially diluted in RIA buffer and measured by RIA to determine the cross-reactivities among these closely related peptides.

[2] = Degradation rate of [Arg^0]-BK in plasma in vitro; format: in vitro ADME, Japanese eel; conditions: plasma with inhibitor cocktail (1,10-phenanthroline, potassium EDTA, aprotinin), spiked 3,000 fmol/mL, 25 °C, 0, 10 and 30 min, Sep-Pak extraction, RIA read-out, n = 3, Student t-test p > 0.05
Description: (§2) Juvenile, sexually immature Japanese eel (Anguilla japonica; 160 - 220 g), tilapia (Oreochromis niloticus; 50 - 100g), rainbow trout (Oncorhynchus mykiss; 100 - 200 g), and adult medaka of both sex (Oryzias latipes; 1.5 - 2.2 g) were kept in a freshwater recirculating aquarium system in the Atmosphere and Ocean Research Institute, the University of Tokyo. The water was maintained at 12 °C for trout, 18 °C for eel, 25 °C for tilapia, and 27 °C for medaka, and all animals were exposed to a 14/10 h light/dark cycle throughout the experiment. All animal experimental procedures were approved by the Animal Experiment Committee of the University of Tokyo. Fish were anesthetized by 0.1% ethyl 3-aminobenzoate methanesulfonate (Sigma, St. Louis, MO) neutralized with sodium bicarbonate. […]
as §1

[3] = tested on: eel; conditions: compared with BK, ref [14]; cited from earlier work
[4] = Spiking of pooled plasma, Sep-Pak/HPLC extraction and RIA (recovery and integrity); design: species or system Japanese eel; conditions: pooled eel plasma with inhibitor cocktail spiked to 300, 1000, 3000 fmol/mL, ir-BK profile by RIA
Description: as §2, with “Tokyo.” for “Tokyo. Fish were anesthetized by 0.1% ethyl 3-aminobenzoate methanesulfonate (Sigma, St. Louis, MO) neutralized with sodium bicarbonate.”
The plasma samples were purified by Sep-Pak C18 cartridge, with equilibration buffer (100 mM Tris-HCl, 0.5 M NaCl, pH 7.4) for binding and absolute methanol for elution. The partially purified plasma was further resolved by a reverse-phase HPLC system (Tosoh PU-980, Tokyo) attached to a UV-absorbance detector (Tosoh, UV-970, Tokyo) and utilizing an analytical column (ODS 100S column, 4.6 mm I.D. x 25 cm, C-18, 5 μm particle size, Tosoh, Tokyo). […]
To test the degradation rate of [Arg^0]-BK in plasma in vitro, 3 blood samples with inhibitor cocktail were prepared. […] The immunoreactive (ir)-[Arg^0]-BK was measured using the newly established RIA. […]

Substance | pEC50 ([1]; displacement of 125I-[Tyr^-1, Arg^0, Trp^5, Leu^8]-bradykinin tracer, antiserum 1:10,000, 4 °C for 24 h, gamma counter, measurements in duplicate) | ir-[Arg^0]-BK content after incubation in plasma [2] | potency in eliciting cardiovascular and antidipsogenic effects [3] | integrity of spiked [Arg^0]-BK in plasma (conversion to BK) [4] | crossreactivity in the RIA [1]
RRPPGWSPLR [[Arg^0]-BK, [Arg^0, Trp^5, Leu^8]-bradykinin, synthetic teleost decapeptide kinin, […], from Phoenix Pharmaceuticals] | 9.26 | did not alter the peptide contents; also recorded: not statistically different among various time points | more potent than BK | remained as a single ir-peak; also recorded: remained intact | –
[Arg^0, Trp^5, des-Leu^8, des-Arg^9]-bradykinin [[Arg^0, Trp^5, des-Leu^8, des-Arg^9]-BK] | – | – | – | – | negligible crossreactivity
[Trp^5, Leu^8]-BK | – | – | – | – | 71.3%
